Laboratory results: patent publication US6930088B2, “Conformationally constrained backbone cyclized somatostatin analogs” (Peptor Ltd., priority 1998, dated 2005)
*1 amine or outer side, *2 acyl side, *3 side chain or, on linkers, in order; H or OH if unused. Where a SMILES comes first, the peptide text is derived from it. Bridges are numbered along the chain shown (N, C = ends). Where no end group is shown, it is not given here. [ ]: non-standard residue; d: D form. N(2-aminoethyl)Phe = O=C([C@H](Cc1ccccc1)N(CCN[*:3])[*:1])[*:2]; N(CH2CH2CO)Gly = O=C(CN(CCC(=O)[*:3])[*:1])[*:2]; 2Nal = N[C@@H](Cc1ccc2ccccc2c1)C(=O)O; Gly(S2) = not defined here; Phe(C1) = not defined here; Mpa = O=C(O)CCS

Key:
SSTR-3 = target: T1, SSTR-3 (Homo sapiens, UniProt P32745); test: Inhibition of 125I-Tyr11-SRIF binding to membrane preparations expressing SSTR-3; settings: SST-R3, read-out: Percent inhibition of SRIF-14 binding; for inhibition at 1 µM: 10^−6M; for inhibition at 0.1 µM: 10^−7M; for inhibition at 0.01 µM: 10^−8M
T1 construct: expressed in transfected cells
T1 sequence (P32745 whole entry): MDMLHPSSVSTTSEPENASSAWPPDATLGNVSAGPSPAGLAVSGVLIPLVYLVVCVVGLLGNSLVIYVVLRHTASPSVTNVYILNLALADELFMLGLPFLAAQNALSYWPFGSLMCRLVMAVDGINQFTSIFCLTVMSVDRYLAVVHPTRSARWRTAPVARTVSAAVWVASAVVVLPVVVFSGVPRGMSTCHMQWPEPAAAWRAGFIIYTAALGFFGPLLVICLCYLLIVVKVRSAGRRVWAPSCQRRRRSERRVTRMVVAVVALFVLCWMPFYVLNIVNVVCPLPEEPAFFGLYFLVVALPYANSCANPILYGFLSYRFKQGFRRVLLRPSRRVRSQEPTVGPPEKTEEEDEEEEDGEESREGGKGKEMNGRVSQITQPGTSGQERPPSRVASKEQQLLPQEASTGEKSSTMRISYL
Method: The somatostatin analogs were tested for their potency in inhibition of the binding of ^125I-Tyr^11-SRIF (based on the method described by Raynor et. al., Molecular Pharmacology, 1993, 43, 838-844) to membrane preparations expressing the transmembranal somatostatin receptors (SSTR-1, 2, 3, 4 or 5). The receptor preparations used for these tests were either from the cloned human receptors selectively and stably expressed in Chinese Hamster Ovary (CHO) cells or from cell lines naturally expressing the SSTRs. […] The binding reactions were filtered, the filters were washed and the bound radioactivity was counted in gamma counter. Non specific binding was defined as the radioactivity remaining bound in the presence of 1 μM unlabeled SRIF-14.
(§1) In order to validate positive signals of the binding tests, and to eliminate non-specific signals, samples of irrelevant peptides, such as GnRH, that were synthesized and handled using the same procedures, were tested in the same assays as negative control samples. These samples had no binding activity in any of the assays. Results are shown below in Tables 5 and 6 and FIG. 1.

SSTR-5 = target: T2, SSTR-5 (Homo sapiens, UniProt P35346); test: Inhibition of 125I-Tyr11-SRIF binding to membrane preparations expressing SSTR-5; settings: SST-R5, read-out: Percent inhibition of SRIF-14 binding; for inhibition at 1 µM: 10^−6M; for inhibition at 0.1 µM: 10^−7M; for inhibition at 0.01 µM: 10^−8M
T2 construct: expressed in transfected cells
T2 sequence (P35346 whole entry): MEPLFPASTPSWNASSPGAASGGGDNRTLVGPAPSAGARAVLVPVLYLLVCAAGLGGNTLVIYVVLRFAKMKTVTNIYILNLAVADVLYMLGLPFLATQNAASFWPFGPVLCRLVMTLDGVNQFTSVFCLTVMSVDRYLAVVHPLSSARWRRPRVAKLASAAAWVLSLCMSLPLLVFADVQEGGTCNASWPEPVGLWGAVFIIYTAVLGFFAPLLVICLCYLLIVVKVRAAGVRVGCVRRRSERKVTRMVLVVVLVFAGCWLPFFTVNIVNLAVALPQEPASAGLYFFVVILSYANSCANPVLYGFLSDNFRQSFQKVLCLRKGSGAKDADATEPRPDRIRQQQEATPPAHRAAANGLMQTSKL
Method: (§2) The receptor preparations used for these tests were either from the cloned human receptors selectively and stably expressed in Chinese Hamster Ovary (CHO) cells or from cell lines naturally expressing the SSTRs. […] The binding reactions were filtered, the filters were washed and the bound radioactivity was counted in gamma counter. Non specific binding was defined as the radioactivity remaining bound in the presence of 1 μM unlabeled SRIF-14.
as §1

in vitro = settings: for remaining at 1 h / remaining at 3 h / remaining at 24 h: kidney or brush border membranes
Method: The assay was based on HPLC determination of peptide degradation as a function of time in renal homogenate at 37° C.

[1] = rat, in vivo, iv, 6 mg/kg
Method: PTR 3173 was tested in various species for its initial safety properties. Under the European Pharmacopoeia requirements for safety testing, it was declared a safe drug candidate at this stage of development.

[2] = Metabolic bio-stability against degradation by enzyme mixtures; type: in vitro ADME; settings: in words; renal homogenate, rat liver homogenate and human serum
Opiate receptors = test: NovaScreen nonspecific binding, Opiate receptors; settings: tested at 100 nM; FIG. 2
From the text: NovaScreen (Hanover, Md.) performed an assessment for nonspecific binding to various G-protein coupled receptor families. Binding studies to Neurokinin, Opiate and Muscarinic receptors were based on a comparison between the native hormone Somatostatin, Ocreotide and PTR 3173.

[3] = target: T3, cloned human somatostatin receptor 1 (human, UniProt P30872 1-391); test: 125I-Tyr11-SRIF displacement on SSTR membrane preparations, negative control peptide
T3 construct: whole, on cells; Tested as cell membrane preparations; also called SSTR-1; SSTR1
T3 sequence (P30872 whole entry): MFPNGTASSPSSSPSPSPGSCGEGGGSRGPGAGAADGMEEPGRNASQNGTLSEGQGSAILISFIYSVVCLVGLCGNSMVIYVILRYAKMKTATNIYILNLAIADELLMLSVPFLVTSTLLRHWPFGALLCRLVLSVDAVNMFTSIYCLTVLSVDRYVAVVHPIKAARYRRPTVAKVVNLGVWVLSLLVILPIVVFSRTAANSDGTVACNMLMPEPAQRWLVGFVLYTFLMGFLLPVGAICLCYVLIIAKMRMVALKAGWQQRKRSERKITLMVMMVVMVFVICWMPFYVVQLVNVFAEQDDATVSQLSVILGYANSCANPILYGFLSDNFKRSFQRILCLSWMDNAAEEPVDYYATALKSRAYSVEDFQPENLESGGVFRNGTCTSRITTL
From the text: as §2, with “counter.” for “counter. Non specific binding was defined as the radioactivity remaining bound in the presence of 1 μM unlabeled SRIF-14.”
as §1

[4] = target: T4, cloned human somatostatin receptor 2 (human, UniProt P30874 1-369); test: as above
T4 construct: whole, on cells; Tested as cell membrane preparations; also called SSTR-2; SSTR2
T4 sequence (P30874 whole entry): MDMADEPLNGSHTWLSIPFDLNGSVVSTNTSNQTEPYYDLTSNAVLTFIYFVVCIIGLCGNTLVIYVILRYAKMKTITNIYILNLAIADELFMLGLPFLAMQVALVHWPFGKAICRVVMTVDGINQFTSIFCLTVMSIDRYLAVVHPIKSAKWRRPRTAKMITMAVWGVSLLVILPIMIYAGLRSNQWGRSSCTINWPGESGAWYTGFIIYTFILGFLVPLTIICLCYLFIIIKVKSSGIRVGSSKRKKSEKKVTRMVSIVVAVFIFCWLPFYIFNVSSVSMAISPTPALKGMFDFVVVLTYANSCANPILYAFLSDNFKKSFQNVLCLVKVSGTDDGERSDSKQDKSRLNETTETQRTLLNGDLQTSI
From the text: as §2, with “counter.” for “counter. Non specific binding was defined as the radioactivity remaining bound in the presence of 1 μM unlabeled SRIF-14.”
as §1

[5] = target: T5, cloned human somatostatin receptor 3 (human, UniProt P32745 1-418); test: as above
T5 construct: whole, on cells; Tested as cell membrane preparations; also called SSTR-3; SSTR3
T5 sequence (P32745 whole entry): as the sequence (P32745 whole entry) above
From the text: as §2, with “counter.” for “counter. Non specific binding was defined as the radioactivity remaining bound in the presence of 1 μM unlabeled SRIF-14.”
as §1

[6] = target: T6, cloned human somatostatin receptor 4 (human, UniProt P31391 1-388); test: as above
T6 construct: whole, on cells; Tested as cell membrane preparations; also called SSTR-4; SSTR-R4
T6 sequence (P31391 whole entry): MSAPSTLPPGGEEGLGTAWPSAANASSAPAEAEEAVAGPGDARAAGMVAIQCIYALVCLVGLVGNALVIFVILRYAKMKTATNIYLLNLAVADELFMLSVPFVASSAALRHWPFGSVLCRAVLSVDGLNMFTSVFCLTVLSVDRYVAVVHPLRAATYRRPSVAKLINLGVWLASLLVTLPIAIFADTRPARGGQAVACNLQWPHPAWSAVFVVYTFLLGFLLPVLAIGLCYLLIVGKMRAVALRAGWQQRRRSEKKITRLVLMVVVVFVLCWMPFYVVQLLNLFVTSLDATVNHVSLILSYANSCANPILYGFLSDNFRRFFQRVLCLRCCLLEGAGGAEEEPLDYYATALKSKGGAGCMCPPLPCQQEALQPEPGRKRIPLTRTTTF
From the text: as §2, with “counter.” for “counter. Non specific binding was defined as the radioactivity remaining bound in the presence of 1 μM unlabeled SRIF-14.”
as §1

[7] = target: T7, cloned human somatostatin receptor 5 (human, UniProt P35346 1-364); test: as above
T7 construct: whole, on cells; Tested as cell membrane preparations; also called SSTR-5; SSTR5
T7 sequence (P35346 whole entry): as the sequence (P35346 whole entry) above
From the text: as §2, with “counter.” for “counter. Non specific binding was defined as the radioactivity remaining bound in the presence of 1 μM unlabeled SRIF-14.”
as §1

[8] = target: T7, cloned human somatostatin receptor 5; test: 125I-Tyr11-SRIF displacement, membranes, cloned human SST-R5
[9] = target: T5, cloned human somatostatin receptor 3; test: 125I-Tyr11-SRIF displacement, membranes, cloned human SST-R3
From the text: as §2, with “counter.” for “counter. Non specific binding was defined as the radioactivity remaining bound in the presence of 1 μM unlabeled SRIF-14.”

[10] = target: T7, cloned human somatostatin receptor 5; test: IC50 for SST-R5 (subtype numbers stand in r6)
[11] = target: T3, cloned human somatostatin receptor 1; test: inhibition of SRIF binding, cloned human SSTR-1; head says nM, values evidently molar
From the text: as §2, with “counter.” for “counter. Non specific binding was defined as the radioactivity remaining bound in the presence of 1 μM unlabeled SRIF-14.”

[12] = target: T4, cloned human somatostatin receptor 2; test: inhibition of SRIF binding, cloned human SSTR-2; head says nM, values evidently molar
From the text: as §2, with “counter.” for “counter. Non specific binding was defined as the radioactivity remaining bound in the presence of 1 μM unlabeled SRIF-14.”

[13] = target: T5, cloned human somatostatin receptor 3; test: inhibition of SRIF binding, cloned human SSTR-3; head says nM, values evidently molar
From the text: as §2, with “counter.” for “counter. Non specific binding was defined as the radioactivity remaining bound in the presence of 1 μM unlabeled SRIF-14.”

[14] = target: T7, cloned human somatostatin receptor 5; test: inhibition of SRIF binding, cloned human SSTR-5; head says nM, values evidently molar
From the text: as §2, with “counter.” for “counter. Non specific binding was defined as the radioactivity remaining bound in the presence of 1 μM unlabeled SRIF-14.”

[15] = target: T3, cloned human somatostatin receptor 1; test: IC50 for SST-R1 (subtype numbers stand in r6)
[16] = target: T5, cloned human somatostatin receptor 3; test: IC50 for SST-R3 (subtype numbers stand in r6)

## NCCCC[C@@H]1NC(=O)[C@@H](Cc2c[nH]c3ccccc23)NC(=O)[C@H](Cc2ccccc2)NC(=O)[C@H](Cc2ccccc2)NC(=O)[C@H](Cc2ccccc2)NCC(=O)NCCN([C@@H](Cc2ccccc2)C(N)=O)C1=O [PTR 3113, Phe(C1)-Phe-Phe-(D)Trp-Lys-Phe(N2)-X]
SSTR-3
  inhibition at 1 µM: 94%
  inhibition at 0.1 µM: 65%
  inhibition at 0.01 µM: 16%
SSTR-5
  inhibition at 1 µM: 86%
  inhibition at 0.1 µM: 50%
  inhibition at 0.01 µM: 0%
In vitro
  remaining at 1 h: 100%
  remaining at 3 h: 100%
  remaining at 24 h: 100%
[1]
  safety: safe

## NCCCC[C@H]1NC(=O)[C@@H](Cc2c[nH]c3ccccc23)NC(=O)[C@H](Cc2ccccc2)NC(=O)[C@H](Cc2ccccc2)NC(=O)[C@H](Cc2ccccc2)NCC(=O)NCCN([C@@H](Cc2ccccc2)C(N)=O)C1=O [PTR 3123, Phe(C1)-Phe-Phe-(D)Trp-(D)Lys-Phe(N2)-X]
SSTR-3
  inhibition at 1 µM: 84%
  inhibition at 0.1 µM: 41%
  inhibition at 0.01 µM: 24%
SSTR-5
  inhibition at 1 µM: 0%
  inhibition at 0.1 µM: 0%
  inhibition at 0.01 µM: 0%
In vitro
  remaining at 1 h: 100%
  remaining at 3 h: 100%
  remaining at 24 h: 100%
[1]
  safety: safe

## NCCCC[C@@H]1NC(=O)[C@@H](Cc2c[nH]c3ccccc23)NC(=O)[C@H](Cc2ccc(O)cc2)NC(=O)[C@H](Cc2ccccc2)NCCNC(=O)CCN(CC(N)=O)C(=O)[C@H](Cc2ccc3ccccc3c2)NC(=O)[C@H](CO)NC1=O [PTR 3201, Phe(N2)-Tyr-(D)Trp-Lys-Ser-2Nal-Gly(C2)-X] (H-[N(2-aminoethyl)Phe]Y[dW]KS[2Nal][N(CH2CH2CO)Gly]-NH2; lactam 1-7; N-terminus and C-terminus assumed)
[2]
  metabolic bio-stability against degradation by enzymes: considerable metabolic bio-stability against degradation by enzymes

## C[C@@H](O)[C@@H]1NC(=O)[C@H](CCCCN)NC(=O)[C@@H](Cc2c[nH]c3ccccc23)NC(=O)[C@H](Cc2ccccc2)NC(=O)[C@@H]2CSSC[C@H](NC1=O)C(=O)N([C@@H](Cc1ccccc1)C(N)=O)CCCNC(=O)CCCN[C@@H](Cc1ccccc1)C(=O)N2 [PTR 3205, Phe(C3)-Cys*-Phe-(D)Trp-Lys-Thr-Cys*-Phe(N3)-X]
[2]
  metabolic bio-stability against degradation by enzymes: considerable metabolic bio-stability against degradation by enzymes

## C[C@H](N)C(=O)NCC(=O)N[C@H]1CSSC[C@@H](C(=O)O)NC(=O)[C@H](CO)NC(=O)[C@H]([C@@H](C)O)NC(=O)[C@H](Cc2ccccc2)NC(=O)[C@H]([C@@H](C)O)NC(=O)[C@H](CCCCN)NC(=O)[C@H](Cc2c[nH]c3ccccc23)NC(=O)[C@H](Cc2ccccc2)NC(=O)[C@H](Cc2ccccc2)NC(=O)[C@H](CC(N)=O)NC(=O)[C@H](CCCCN)NC1=O [SRIF, H-Ala^1-Gly^2-Cys^3-Lys^4-Asn^5-Phe^6-Phe^7-Trp^8-Lys^9-Thr^10-Phe^11-Thr^12-Ser^13-Cys^14-OH, reference compound]
In vitro; Time 0 hrs, 37° C.
  Percent of intact molecule after incubation in renal homogenate: 100%
In vitro
  remaining at 1 h: 5%
  remaining at 3 h: 0%
  remaining at 24 h: 0%
Opiate receptors
  binding to Opiate receptors: did not bind

B1: GnRH (peptide, UniProt P01148 24-33, looked up)
peptide: QHWSYGLRPG
modifications: not fully specified (residue 1, C-terminus)
notes: Negative control sample; also called irrelevant peptides, such as GnRH
[3]
  binding result: no binding
[4]
  binding result: no binding
[5]
  binding result: no binding
[6]
  binding result: no binding
[7]
  binding result: no binding

## [Phe(C1)]FF[dW][dK][N(2-aminoethyl)Phe] (lactam 1-6; reading uncertain, Backbone cyclized hexapeptide) [PTR 3123]
[8]
  percent inhibition of SRIF-14 binding at 10^-7M: 0%
  percent inhibition of SRIF-14 binding at 10^-8M: 0%
[9]
  percent inhibition of SRIF-14 binding at 10^-6M: 84%
  percent inhibition of SRIF-14 binding at 10^-7M: 41%
  percent inhibition of SRIF-14 binding at 10^-8M: 24%

B2: PTR 3207 (peptide)
peptide: [dF]CFW[dW]KTF[Gly(S2)]-NH2
modifications: disulfide 2-9; reading uncertain
notes: Backbone to side chain cyclized nonapeptide
[10]
  IC50: 4 nM
[11]
  IC50: 100 nM
[12]
  IC50: 1 nM
[13]
  IC50: 1 nM
[14]
  IC50: 10 nM

B3: PTR 3219 (peptide)
peptide: FGFWWKTFG
modifications: (D)Phe at 1; Gly(S2) building units at 2 and 9 bridged to each other; (D)Trp at 5; C-terminal amide
[10]
  IC50: 37 nM

B4: PTR 3211 (peptide)
peptide: {mercaptoacetic acid}-FW[dW]KTF[Gly(S2)]-NH2
modifications: disulfide N-7; reading uncertain
notes: Cyclized between the SH moiety and the SH-type building unit
[10]
  IC50: 1.3 nM

B5: PTR 3197 (peptide)
peptide: CFW[dW]KTF[Gly(S2)]-NH2
modifications: disulfide 1-8; reading uncertain
notes: Backbone to side chain cyclized octapeptide
[15]
  IC50: 1000 nM
[16]
  IC50: 40 nM
[11]
  IC50: 10 nM
[12]
  IC50: 10 nM
[13]
  IC50: 1 nM
[14]
  IC50: 10 nM

## [Mpa]FW[dW]KTF[Gly(S2)]-NH2 (bridge N-8; reading uncertain) [PTR 3217]
[10]
  IC50: 4.1 nM
